{"source": "paper PMC12032302", "about": "“A20 attenuates oxidized self-DNA-mediated inflammation in acute kidney injury” (Signal Transduction and Targeted Therapy, 2025)", "key": {"[1]": {"tested_on": "recombinant human NEK7 protein", "assay": "BLI analysis of recombinant human NEK7 and P-II", "conditions": "Supplementary Fig. 4e, peptide immobilized on AR2G biosensors 400 μg/ml, recombinant human NEK7 39.0625 to 1250 nM, 1:1 binding model", "protocol": "Bio-Layer Interferometry (BLI) analysis\nThe peptide (Bootech BioScience &Technology) was immobilized separately on Octet® AR2G Biosensors (Sartorius, Lot#2308017311) at a concentration of 400 μg/ml for 500 s. Association and dissociation curves were obtained through the addition of a dilution series of recombinant human NEK7 protein (SinoBiological, CAT#11534-H20B) (39.0625 to 1250 nM) for 120 s followed by dissociation for 120 s. Interference patterns for association or dissociation were measured in real-time to generate a response profile on the Octet® System Octet 96 Red instrument (Sartorius). A 1:1 binding model was used to evaluate the Kinetic parameter."}, "HA-NEK7 K140A": {"tested_on": "HA-NEK7 K140A", "assay": "biotin-P-II immunoprecipitation of HA-NEK7 K140A", "format": "binding, mouse", "conditions": "co-IP with biotin-labeled P-II, HEK293T lysates, overnight 4 °C, immunoblot; Fig. 7c", "protocol": "For biotin mediated immunoprecipitation, plasmids of HA-NEK7 (WT, K130A, L132R, K140A and Tri-MUT) were transfected into HEK293T cells for 2 days. Then, cells were lysed in MLB with inhibitor cocktail for 10 min at 4 °C. Cell lysates were collected and centrifuged at 12,000 rpm for 15 min at 4 °C and the supernatant was incubated with biotin conjunction peptide overnight at 4 °C. On the next day, streptavidin magnetic beads(Invitrogen, Lot#91221939) were added and incubated for 1 h. The immunocoprecipitated protein was then subjected to washing, heating, and western blot analysis.\nMouse HA-NEK7, FlAG-A20, and NLRP3 cDNA were amplified by employing standard PCR techniques from a mouse cDNA library. Subsequently, diverse cDNAs were inserted into mammalian expression vectors pcDNA3.1(+), pRK5, or pCMV6 with 3×Flag or 3×HA tags. For transient transfections, Lipofectamine 3000 was utilized according to the manufacturer’s instructions."}, "AKI mice [2]": {"tested_on": "AKI mice", "assay": "tubular injury / renal injury of AKI mice (HE histology)", "format": "in vivo, mouse", "conditions": "Cis-treated mice; A20-derived peptide 15 mg/kg i.p., pretreated; n = 9", "protocol": "LPS (Sigma, Cat#L2630) was dissolved in PBS to 2.5 mg/mL for one-time intraperitoneal 25 mg/kg injection; deoxyribonuclease I (DNase I, Sigma, Cat#SLBV1446) was dissolved in PBS to 1 mg/mL and injected intraperitoneally at a dose of 10 mg/kg at 4 h before cisplatin or AA I injection and every 24 h after injection. Disulfiram (MedChemExpress, CAS:97-77-8) was diluted in corn oil to 12.5 mg/mL and injected 50 mg/kg intraperitoneally every 24 h after cisplatin or AA I administration. Cu(II) (Sigma, Cat#344419) was dissolved in PBS to 30 µg/mL and administered intraperitoneally 6 h before disulfiram at a dose of 0.15 mg/kg; TNF-α (Peprotech, Cat#315-01 A) was dissolved in PBS to 10 µg/mL and injected at 100 µg/kg once through the caudal vein 24 h before cisplatin injection. […] MCC950 (MedChem Express, CAS:256373-96-3) was dissolved in PBS to 5 mg/mL and injected intraperitoneally at a dose of 50 mg/kg 12 h before cisplatin or AA I injection and every 12 h after injection; berberine (APExBIO, Cat#N1368) was dissolved in PBS to 5 mg/mL and 5 mg/kg injected intraperitoneally at 36, 24 and 12 h before cisplatin; […] To supervise the effects of various treatments on survival time and rate, the mice were observed, and survival curves were generated. To investigate the specific mechanisms, whole blood was retrieved from the orbit, serum was separated through centrifugation on the 4th day, and the mice were then sacrificed by cervical dislocation. Mice were randomly assigned in experiments, while there was no blinding during the animal experiments. Renal function was evaluated based on serum creatinine level and histological features. Serum creatinine was determined in the Clinical Pharmacology Lab, Clinical Trial Center, WCH, SCU. The kidneys were extracted from euthanized mice, immediately fixed with 4% paraformaldehyde, and embedded in paraffin. Furthermore, the samples were cut into 5 µm thick sections. These tissue samples were subjected to hematoxylin-eosin (HE) and […] according to standard protocols with HE reagent (Biosharp, Cat#BL702B, BL703B) and Masson reagent (Servicebio, Cat#G1006-100ML). The pathological changes were detected through optical microscopy, and the tubulointerstitial injury score was determined as previously reported."}, "AKI mice [3]": {"tested_on": "AKI mice", "assay": "overall therapeutic effect in AKI mice", "format": "in vivo, mouse", "conditions": "A20-derived peptide (P-II), abstract", "protocol": "Aristolochic acid I sodium salt was dissolved in PBS to 1 mg/mL and injected intraperitoneally at a dose of 10 mg/kg (body weight) every 24 h for 3 days; cisplatin was dissolved in PBS to 1.5 mg/mL for one-time intraperitoneal 25 mg/kg injection; LPS (Sigma, Cat#L2630) was dissolved in PBS to 2.5 mg/mL for one-time intraperitoneal 25 mg/kg injection; deoxyribonuclease I (DNase I, Sigma, Cat#SLBV1446) was dissolved in PBS to 1 mg/mL and injected intraperitoneally at a dose of 10 mg/kg at 4 h before cisplatin or AA I injection and every 24 h after injection. Disulfiram (MedChemExpress, CAS:97-77-8) was diluted in corn oil to 12.5 mg/mL and injected 50 mg/kg intraperitoneally every 24 h after cisplatin or AA I administration. Cu(II) (Sigma, Cat#344419) was dissolved in PBS to 30 µg/mL and administered intraperitoneally 6 h before disulfiram at a dose of 0.15 mg/kg; TNF-α (Peprotech, Cat#315-01 A) was dissolved in PBS to 10 µg/mL and injected at 100 µg/kg once through the caudal vein 24 h before cisplatin injection. Metformin (Sigma, Cat#D150959) was dissolved in PBS to 5 mg/mL and injected intraperitoneally at a dose of 50 mg/kg 24 h before cisplatin or AA I injection and every 24 h after injection. MCC950 (MedChem Express, CAS:256373-96-3) was dissolved in PBS to 5 mg/mL and injected intraperitoneally at a dose of 50 mg/kg 12 h before cisplatin or AA I injection and every 12 h after injection; berberine (APExBIO, Cat#N1368) was dissolved in PBS to 5 mg/mL and 5 mg/kg injected intraperitoneally at 36, 24 and 12 h before cisplatin; A20-derived-peptide was dissolved in ddH2O to 3 mg/mL and injected intraperitoneally at a dose of 15 mg/kg 1 h before cisplatin. To supervise the effects of various treatments on survival time and rate, the mice were observed, and survival curves were generated. To investigate the specific mechanisms, whole blood was retrieved from the orbit, serum was separated through centrifugation on the 4th day, and the mice were then sacrificed by cervical dislocation. Mice were randomly assigned in experiments, while there was no blinding during the animal experiments."}}, "note": "Entries after “also recorded” stand apart in the source; their conditions may differ. Residues, ends and D or L forms follow the SMILES beside them."}
{"smiles": "CSCC[C@H](NC(=O)[C@H](Cc1ccc(O)cc1)NC(=O)[C@H](CCC(N)=O)NC(=O)[C@H](CS)NC(=O)[C@H](C)NC(=O)[C@H](C)NC(=O)[C@H](Cc1c[nH]cn1)NC(=O)[C@H](CCSC)NC(=O)[C@H](CC(C)C)NC(=O)[C@H](CS)NC(=O)[C@H](CC(N)=O)NC(=O)CNC(=O)[C@H](CC(=O)O)NC(=O)CNC(=O)[C@H](CC(N)=O)NC(=O)[C@@H](NC(=O)[C@H](CCCCN)NC(=O)[C@H](CC(C)C)NC(=O)[C@H](C)NC(=O)[C@@H](NC(=O)[C@H](CC(C)C)NC(=O)[C@@H](N)CCCCN)C(C)C)[C@@H](C)O)C(=O)N[C@@H](Cc1c[nH]c2ccccc12)C(=O)NCC(=O)N[C@H](C(=O)N[C@@H](CCC(N)=O)C(=O)N[C@@H](CC(=O)O)C(=O)N[C@H](C(=O)N[C@@H](CC(=O)O)C(=O)O)[C@@H](C)O)C(C)C", "note": "[P-II] (H-KLVALKTNGDGNCLMHAACQYMWGVQDTD-OH; N-terminus and C-terminus assumed)", "values": [{"measurement": "affinity for NEK7 (in words)", "setting": "[1]", "value": "high affinity to NEK7 protein"}, {"measurement": "binding of NEK7 and P-II, effect of K140A mutation", "setting": "HA-NEK7 K140A", "value": "significantly attenuate the binding of NEK7 and P-II; also recorded: Lys140 of NEK7 is crucial for this binding"}, {"measurement": "renal injury (in words)", "setting": "AKI mice [2]", "value": "alleviated the serum creatinine and renal injury"}, {"measurement": "survival and renal injury of AKI mice", "setting": "AKI mice [3]", "value": "improves the survival and renal injury of AKI mice"}]}
